Data on 20 molecules can be found in patent US4003887A, “Novel penicillins and their preparation” (Sumitomo Chemical Company, Limited, priority 1972, dated 1977).

Values after ≈ are worked out from the molar mass of the structure shown. Bounds are passed on as bounds.

For assay [1], the system named is gram-positive and gram-negative bacteria. The note with it: literature, words; cited from earlier work.
In another assay the test system is Pseudomonas. The note with it: literature, words; cited from earlier work.
Assay [2] concerns Klebsiella pneumoniae PC1602. As to the kind of experiment: Minimal inhibitory concentration, agar dilution method. It counts as cell-based. The text has this: (§1) When determined according to the agar dilution method, the penicillins (I) afford the minimal inhibitory concentrations against test microorganisms as shown in Table 2.
(In general: Agar dilution tests growth on a series of plates holding different concentrations.)

The test system of the next assay is Proteus miravilis GN2425. The assay is described as above. It counts as cell-based.
Assay [3] has as its system Pseudomonas aeruginosa 104. The assay is described as above. It counts as cell-based.
From the text: as §1

In assay [4] the test system is Staphylococcus aureus 209P. The assay is described as above. It counts as cell-based.
From the text: as §1

A further assay concerns Escherichia coli NIHJ. The assay is described as above. It counts as cell-based.
From the text: as §1

For “6 -(α-amino-isothiazolylacetamido)penicillanic acid”, in assay [1], the “inhibition of growth of gram-positive and gram-negative bacteria” value (“inhibition” below) was “inhibit the growth of various gram-positive and gram-negative bacteria”. Moreover, in the assay on Pseudomonas, the “antimicrobial activity against Pseudomonas” value (“antimicrobial activity” for short) is on record as “do not exert any appreciable antimicrobial activity against Pseudomonas”. As to “6-(α-amino-thienylacetamido)penicillanic acid”, the “inhibition” value in assay [1] was “inhibit the growth of various gram-positive and gram-negative bacteria”. Also, the “antimicrobial activity” value in the assay with Pseudomonas is recorded as “do not exert any appreciable antimicrobial activity against Pseudomonas”. As for `CC1(C)S[C@@H]2C(NC(=O)C(N)c3ccc(O)cc3)C(=O)N2[C@H]1C(=O)O` (stereo partly drawn) [Amoxycillin, 6-(α-amino-p-hydroxyphenylacetamido)penicillanic acid], the “inhibition” value in assay [1] is “inhibit the growth of various gram-positive and gram-negative bacteria”. The molecule further displayed an MIC in assay [2] above 200 µg/mL. Moreover, the “antimicrobial activity” value with Pseudomonas is reported as “do not exert any appreciable antimicrobial activity against Pseudomonas”. `CC1(C)S[C@@H]2C(NC(=O)C(N)c3ccccc3)C(=O)N2[C@H]1C(=O)O` (stereo partly drawn) [Ampicillin, 6-(α-amino-phenylacetamido)penicillanic acid]: in assay [1], the “inhibition” value is “inhibit the growth of various gram-positive and gram-negative bacteria”. In addition, the “antimicrobial activity” value in the assay on Pseudomonas is on record as “do not exert any appreciable antimicrobial activity against Pseudomonas”. For the molecule `CC1(C)S[C@@H]2[C@H](NC(=O)C3(N)CCCCC3)C(=O)N2[C@H]1C(=O)O` [Cyclacillin, 6-(1-amino-cyclohexane)carboxamidopenicillanic acid], in assay [1], the “inhibition” value is “inhibit the growth of various gram-positive and gram-negative bacteria”. In addition, the “antimicrobial activity” value with Pseudomonas is reported as “do not exert any appreciable antimicrobial activity against Pseudomonas”.

On to `CC1(C)S[C@@H]2[C@H](NC(=O)[C@H](N)C3=CCC=CC3)C(=O)N2[C@H]1C(=O)O` [Epicillin, 6-[α-amino-2-(1,4-hexadienylacetamido)]penicillanic acid], for which, in assay [1], the “inhibition” value was “inhibit the growth of various gram-positive and gram-negative bacteria”. Besides, the “antimicrobial activity” value in the assay with Pseudomonas is listed as “do not exert any appreciable antimicrobial activity against Pseudomonas”.

`CC1(C)S[C@@H]2[C@H](NC(=O)[C@H](NC(=O)c3cnc4ccc(NC(=O)OCc5ccccc5)cc4c3O)c3ccc(O)cc3)C(=O)N2[C@H]1C(=O)O` [Example 21]: the minimum inhibitory concentration (MIC) in the assay on Proteus miravilis GN2425 amounted to 12.5 µg/mL (≈ 18.2 µM); in assay [3], 12.5 µg/mL (≈ 18.2 µM); in assay [2], 3.13 µg/mL (≈ 4.56 µM); in assay [4], 0.39 µg/mL (≈ 0.569 µM); against Escherichia coli NIHJ, 12.5 µg/mL (≈ 18.2 µM). On to `CC1(C)S[C@@H]2[C@H](NC(=O)[C@H](NC(=O)c3cnc4cccnc4c3O)c3ccc(O)c(Cl)c3)C(=O)N2[C@H]1C(=O)O` [Example 32], for which, in assay [2], the MIC worked out at 25 µg/mL (≈ 43.7 µM). For the molecule `CCOC(=O)Oc1ccc([C@@H](NC(=O)c2cnc3cn[nH]c3c2O)C(=O)N[C@@H]2C(=O)N3[C@@H]2SC(C)(C)[C@@H]3C(=O)O)cc1` [Example 33], it took 12.5 µg/mL (≈ 20.9 µM) to inhibit growth in assay [2] (MIC).

`CC1(C)S[C@@H]2[C@H](NC(=O)[C@H](NC(=O)c3cnc4cncnc4c3O)c3ccc(O)cc3)C(=O)N2[C@H]1C(=O)O` [Example 34]: the MIC in assay [2] amounted to 12.5 µg/mL (≈ 23.2 µM). In assay [2], `Cc1nc(C)c2ncc(C(=O)N[C@@H](C(=O)N[C@@H]3C(=O)N4[C@@H]3SC(C)(C)[C@@H]4C(=O)O)c3ccc(O)cc3)c(O)c2n1` [Example 35] returned an MIC of 12.5 µg/mL (≈ 22.1 µM). On the same count and under the same terms, the figure for `CCOC(=O)Oc1ccc([C@@H](NC(=O)c2cnc3c(OC)nc(OC)nc3c2O)C(=O)N[C@@H]2C(=O)N3[C@@H]2SC(C)(C)[C@@H]3C(=O)O)cc1` [Example 36] is 25 µg/mL (≈ 37.3 µM).

In the case of `CCOC(=O)Oc1ccc([C@@H](NC(=O)c2cnc3cccnc3c2OC(=O)OCC)C(=O)N[C@@H]2C(=O)N3[C@@H]2SC(C)(C)[C@@H]3C(=O)O)cc1` [Example 37], in assay [2], 12.5 µg/mL (≈ 18.3 µM) was the least that counted as inhibitory (MIC).

As for `CCOC(=O)Oc1ccc([C@@H](NC(=O)c2cnc3cc4c(cc3c2S)OCO4)C(=O)N[C@@H]2C(=O)N3[C@@H]2SC(C)(C)[C@@H]3C(=O)O)cc1` [Example 38], in assay [2], 6.25 µg/mL (≈ 9.35 µM) was the least that counted as inhibitory (MIC). `CCOC(=O)Oc1ccc([C@@H](NC(=O)c2cnc3cccnc3c2S)C(=O)N[C@@H]2C(=O)N3[C@@H]2SC(C)(C)[C@@H]3C(=O)O)cc1` [Example 39] showed an MIC in assay [2] of 6.25 µg/mL (≈ 9.99 µM).

As to `CC1(C)S[C@@H]2[C@H](NC(=O)C(NC(=O)c3cnc4cccnc4c3S)c3cc(Cl)c(O)c(Cl)c3)C(=O)N2[C@H]1C(=O)O` (stereo partly shown) [Example 40], the MIC in assay [2] amounted to 25 µg/mL (≈ 40.2 µM). On the same count and under the same terms, in the case of `COc1cnc2c(O)c(C(=O)N[C@@H](C(=O)N[C@@H]3C(=O)N4[C@@H]3SC(C)(C)[C@@H]4C(=O)O)c3ccc(O)cc3)cnc2n1` [Example 41] it was 25 µg/mL (≈ 44 µM). Take `CCOC(=O)Oc1ccc([C@@H](NC(=O)c2cnc3scnc3c2O)C(=O)N[C@@H]2C(=O)N3[C@@H]2SC(C)(C)[C@@H]3C(=O)O)cc1` [Example 42]: in assay [2], the lowest concentration to inhibit growth (MIC) was 12.5 µg/mL (≈ 20.3 µM). On the same count and under the same terms, the figure for `CC1(C)S[C@@H]2[C@H](NC(=O)[C@H](NC(=O)c3cnc4cccnc4c3S)c3ccc(O)cc3)C(=O)N2[C@H]1C(=O)O` [Example 43] is 6.25 µg/mL (≈ 11.3 µM).

In assay [2], `CC1(C)S[C@@H]2[C@H](NC(=O)C(NC(=O)c3ccccn3)c3ccccc3)C(=O)N2[C@H]1C(=O)O` (stereo partly shown) [R, reference compound] came in with a Minimal inhibitory concentration of 50 µg/mL (≈ 110 µM).

As usually defined, the MIC is the lowest concentration that inhibits growth of the organism.
